Measured values taken from patent US20220281848A1, “PYRAZOLE-SUBSTITUTED PYRROLIDINONES AS HERBICIDES” (FMC Corporation, priority 2019, published 2022).

What was measured:
Assay type in all cases: in vivo
[1] = test system: barnyardgrass (Echinochloa crus-galli, ECHCG); experiment: Test A pre-emergence, barnyardgrass; settings: after 13 d
Outline: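 Values are percent plant damage 13 d after a pre-emergence spray (15.625, 62.5 or 250 g/ha; acetone/water with 0.5% Tween 20) applied to pots one day post-sowing, under glasshouse conditions of 24/16° C. and twice-daily watering.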

[2] = test system: corn (Zea mays, ZEAMX); experiment: Test A post-emergence, corn; settings: after 13 d
Outline: (§1)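 Post-emergence spray at 8 d after sowing; doses 15.625, 62.5 or 250 g/ha in acetone/water 50:50 + 0.5% Tween 20. Glasshouse 24/16 °C, 14 h light, 65% RH, watered twice daily. Visual damage rating 0–100 at 13 d.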

[3] = test system: barnyardgrass (Echinochloa crus-galli, ECHCG); experiment: Test A post-emergence, barnyardgrass; settings: after 13 d
Outline: as §1

[4] = test system: maize; experiment: Test D pre-emergence, maize seed treated with a herbicide safener; settings: ZEAMX, preemergent, 20 DAA
Outline: (§2)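 Seeds treated with herbicide safener; sown in soil; glasshouse, 16 h light, 65% humidity. Sprayed day 1 (pre) or ~day 12 (post). Spray in 0.2% v/v adjuvant. Scored 0–100 damage: 20 DAA pre, 15 d post.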

[5] = test system: plants; experiment: Test D post-emergence, other plants of Tables D2 and D4; settings: "Cereals" Postemergent, evaluated after 15 d
Outline: as §2

COc1c(F)cccc1NC(=O)C1C(=O)N(C)CC1c1cc(C(F)(F)F)n(C)n1 (racemic) [Compound 18]
damage to plant (100=total damage; 0=no damage) ECHCG ([1]; Pre-Emergence at 15.625 g/ha): 90
damage to plant (100=total damage; 0=no damage) ECHCG ([1]; Pre-Emergence at 62.5 g/ha): 90
damage to plant (100=total damage; 0=no damage) ECHCG ([1]; Pre-Emergence at 250 g/ha): 90
damage to plant (100=total damage; 0=no damage) ZEAMX ([2]; Post-Emergence at 15.625 g/ha): 0
damage to plant (100=total damage; 0=no damage) ZEAMX ([2]; Post-Emergence at 62.5 g/ha): 30
damage to plant (100=total damage; 0=no damage) ZEAMX ([2]; Post-Emergence at 250 g/ha): 80
damage to plant (100=total damage; 0=no damage) ECHCG ([3]; Post-Emergence at 15.625 g/ha): 50
damage to plant (100=total damage; 0=no damage) ECHCG ([3]; Post-Emergence at 62.5 g/ha): 70
damage to plant (100=total damage; 0=no damage) ECHCG ([3]; Post-Emergence at 250 g/ha): 70
damage to plant (100=total damage to plant; 0=no damage to plant), ZEAMX ([4]; rate 15): 0
damage to plant (100=total damage to plant; 0=no damage to plant), ZEAMX ([4]; rate 30): 0
damage to plant (100=total damage to plant; 0=no damage to plant), ZEAMX ([4]; rate 60): 0
damage to plant (100=total damage to plant; 0=no damage to plant), ZEAMX ([4]; rate 130): 0
damage to plant (100=total damage to plant; 0=no damage to plant), ZEAMX ([4]; rate 250): 0
damage to plant (100=total damage to plant; 0=no damage to plant), ZEAMX ([4]; rate 500): 0
ALOMY damage rating (100=total damage to plant; 0=no damage to plant) ([5]; Rates 130): 10
ALOMY damage rating (100=total damage to plant; 0=no damage to plant) ([5]; Rates 250): 30
ALOMY damage rating (100=total damage to plant; 0=no damage to plant) ([5]; Rates 500): 40
AVEFA damage rating (100=total damage to plant; 0=no damage to plant) ([5]; Rates 130): 0
AVEFA damage rating (100=total damage to plant; 0=no damage to plant) ([5]; Rates 250): 20
AVEFA damage rating (100=total damage to plant; 0=no damage to plant) ([5]; Rates 500): 40
BEAVA damage rating (100=total damage to plant; 0=no damage to plant) ([5]; Rates 130): 0
BEAVA damage rating (100=total damage to plant; 0=no damage to plant) ([5]; Rates 250): 0
BEAVA damage rating (100=total damage to plant; 0=no damage to plant) ([5]; Rates 500): 0
BROTE damage rating (100=total damage to plant; 0=no damage to plant) ([5]; Rates 130): 0
BROTE damage rating (100=total damage to plant; 0=no damage to plant) ([5]; Rates 250): 0
BROTE damage rating (100=total damage to plant; 0=no damage to plant) ([5]; Rates 500): 0
BRSNN damage rating (100=total damage to plant; 0=no damage to plant) ([5]; Rates 130): 10
BRSNN damage rating (100=total damage to plant; 0=no damage to plant) ([5]; Rates 250): 10
BRSNN damage rating (100=total damage to plant; 0=no damage to plant) ([5]; Rates 500): 20
CHEAL damage rating (100=total damage to plant; 0=no damage to plant) ([5]; Rates 130): 0
CHEAL damage rating (100=total damage to plant; 0=no damage to plant) ([5]; Rates 250): 0
CHEAL damage rating (100=total damage to plant; 0=no damage to plant) ([5]; Rates 500): 20
GALAP damage rating (100=total damage to plant; 0=no damage to plant) ([5]; Rates 130): 0
GALAP damage rating (100=total damage to plant; 0=no damage to plant) ([5]; Rates 250): 0
GALAP damage rating (100=total damage to plant; 0=no damage to plant) ([5]; Rates 500): 40
HORVW damage rating (100=total damage to plant; 0=no damage to plant) ([5]; Rates 130): 0
HORVW damage rating (100=total damage to plant; 0=no damage to plant) ([5]; Rates 250): 30
HORVW damage rating (100=total damage to plant; 0=no damage to plant) ([5]; Rates 500): 50
KCHSC damage rating (100=total damage to plant; 0=no damage to plant) ([5]; Rates 130): 0
KCHSC damage rating (100=total damage to plant; 0=no damage to plant) ([5]; Rates 250): 0
KCHSC damage rating (100=total damage to plant; 0=no damage to plant) ([5]; Rates 500): 0
LOLPE damage rating (100=total damage to plant; 0=no damage to plant) ([5]; Rates 130): 0
LOLPE damage rating (100=total damage to plant; 0=no damage to plant) ([5]; Rates 250): 0
LOLPE damage rating (100=total damage to plant; 0=no damage to plant) ([5]; Rates 500): 10
POAAN damage rating (100=total damage to plant; 0=no damage to plant) ([5]; Rates 130): 0
POAAN damage rating (100=total damage to plant; 0=no damage to plant) ([5]; Rates 250): 50
POAAN damage rating (100=total damage to plant; 0=no damage to plant) ([5]; Rates 500): 70
POLCO damage rating (100=total damage to plant; 0=no damage to plant) ([5]; Rates 130): 0
POLCO damage rating (100=total damage to plant; 0=no damage to plant) ([5]; Rates 250): 0
POLCO damage rating (100=total damage to plant; 0=no damage to plant) ([5]; Rates 500): 0
